Tests used:
[1] = system: Sprague Dawley rats in the FST; assay: Forced swimming test (FST); format: in vivo, rat; conditions: 10 mg/kg subcutaneously, 24, 5, 1 h before testing
Source text: (A) 3-methoxy-PREG (43B) decreased rat immobility in the FST showing antidepressant activity. Results are expressed as mean±SEM (n=6-14). One-way ANOVA: Treatment (F5, 46: 4.30 P<0.01). ***P<0.001, *P<0.05 vs. water and sesame oil (Fisher LSD test). […] Results are expressed as mean±SEM (n=6-14). One-way ANOVA: Treatment (F5, 46: 3.57 P<0.01). **P<0.01, *P<0.05 vs. water and sesame oil (Fisher LSD test). […] One-way ANOVA: Treatment (F5, 46: 3.57 P<0.01). **P<0.01, *P<0.05 vs. water and sesame oil (Fisher LSD test).
Drugs were administered following the traditional dosing regimen used in the FST consisting of three injections: 24, 5, 1 h before testing.
The FST is currently the most widely used animal model for assessing depression related behavior and antidepressant drug activity in rodents (Cryan et al., Neubiorev. 2005). Rats are placed in an inescapable cylinder of water where they develop an immobile posture believed to reflect a “depressive”-like state. The time rats spend immobile is decreased by drugs exerting antidepressant activity.
Additional behaviors can be detected in the FST; namely, climbing and swimming. It has been shown that swimming behavior is sensitive to SSRIs such as fluoxetine whereas climbing is sensitive to norepinephrine re-uptake inhibitors (NRI) such as desipramine.

[2] = system: human neuroblastoma HS-SY5Y cells; assay: Cytotoxicity of okadaic acid, steroid protection (LDH release); format: cell-based; conditions: 24 hours, simultaneous addition, increasing concentrations
Source text: FIG. 6: Toxicity of okadaic acid. Steroid protection. […] Cell death was indicated by the release of lactate dehydrogenase (LDH) in the culture medium.
Okadaic acid is a protein phosphatase inhibiter. Thus, the hyperphosphorylation of tau protein is implicated in microtubule depolymerization and in human neuroblastoma HS-SY5Y cell death. The exposure of SY5Y cell cultures to okadaic acid does in fact cause significant cell death.

MAP2 = assay: Western blot of MAP2 in cortex and hippocampus after CCI; format: in vivo, rat; conditions: 20 mg/kg, first injection 2 h post-trauma, day 35, injured and non-injured cortex and hippocampus
Method: FIG. 19: MAP-2 expression, 35 days after TBI, in the left-uninjured and right-injured hemispheres (A: cortex and B: hippocampus) of CCI-injured animals, receiving either vehicle (D0) or MAP4343 (D1: 10 mg/kg and D2: 20 mg/kg), 2 h after injury.
(§1) Samples were analyzed by Western-blot at day 35 post-trauma (D35) to evaluate the effects of MAP4343 on: MAP2 (the target of MAP4343 and a modulator of microtubule function), the post-synaptic markers PSD95 and spinophilin, the pre-synaptic marker synaptophysin, and the axonal growth/integrity marker GAP43.
(§2) Western blot was performed on cortex and hippocampus of TBI-injured animals receiving the first injection of MAP4343 (at 10 mg/kg or 20 mg/kg) or vehicle (sesame oil) 2 h after injury.
(§3) The expression level of various neuronal brain markers of plasticity was measured at day 35 post-trauma by western-blots in the cortex and hippocampus of left uninjured and right injured cerebral hemispheres of CCI traumatized animals receiving either vehicle (sesame oil, CCI-D0) or 3-methoxy-PREG (MAP4343) at 10 mg/kg (CCI-D1) or 20 mg/kg (CCI-D2), with first MAP4343 injection 2 h post-trauma.

synaptophysin = assay: Western blot of synaptophysin in cortex and hippocampus after CCI; format: in vivo, rat; conditions: 20 mg/kg, first injection 2 h post-trauma, day 35, injured hippocampus
Method: FIG. 22: Synaptophysin expression, 35 days after TBI, in the left-uninjured and right-injured hemispheres (A: cortex and B: hippocampus) of CCI-injured animals, receiving either vehicle (D0) or MAP4343 (D1: 10 mg/kg and D2: 20 mg/kg), 2 h after injury.
as §1, §2, §3

PSD95 = assay: Western blot of PSD95 in cortex and hippocampus after CCI; format: in vivo, rat; conditions: 20 mg/kg, first injection 2 h post-trauma, day 35, ipsilateral injured cortex and hippocampus, contralateral cortex
Method: FIG. 20: PSD-95 expression, 35 days after TBI, in the left-uninjured and right-injured hemispheres (A: cortex and B: hippocampus) of CCI-injured animals, receiving either vehicle (D0) or MAP4343 (D1: 10 mg/kg and D2:20 mg/kg), 2 h after injury.
as §1, §2, §3

With `CO[C@H]1CC[C@@]2(C)C(=CC[C@H]3[C@@H]4CC[C@H](C(C)=O)[C@@]4(C)CC[C@@H]32)C1` [3-methoxy-PREG, 3β-methoxy-pregna-5-ene-20-one] the “rat climbing behavior in the FST” value [1] was “not changed”, the “rat immobility in the FST” value [1] was “significantly decreased” and the “rat swimming in the FST” value [1] was “significantly increased”. The “cell death caused by okadaic acid (LDH release)” value [2] was “the same effect, only much stronger”, the MAP-2 expression (MAP2) was “strong increase” and the Synaptophysin expression (synaptophysin) was “increase in Synaptophysin expression”. The PSD95 expression (PSD95) was “increase in PSD95 expression”.

Source: US20140045807A2, “THE USE OF 3-METHOXY-PREGNENOLONE FOR THE PREPARATION OF A DRUG FOR TREATING A TRAUMATIC BRAIN INJURY” (priority 2004, published 2014)
